According to patent US12578336B2, “ATP detection” (Promega Corporation, priority 2022, dated 2026):
“Also recorded” adds a separate entry of the source.

T1: ENPP1 (Homo sapiens, UniProt P22413)
T1 sequence (P22413 1-925): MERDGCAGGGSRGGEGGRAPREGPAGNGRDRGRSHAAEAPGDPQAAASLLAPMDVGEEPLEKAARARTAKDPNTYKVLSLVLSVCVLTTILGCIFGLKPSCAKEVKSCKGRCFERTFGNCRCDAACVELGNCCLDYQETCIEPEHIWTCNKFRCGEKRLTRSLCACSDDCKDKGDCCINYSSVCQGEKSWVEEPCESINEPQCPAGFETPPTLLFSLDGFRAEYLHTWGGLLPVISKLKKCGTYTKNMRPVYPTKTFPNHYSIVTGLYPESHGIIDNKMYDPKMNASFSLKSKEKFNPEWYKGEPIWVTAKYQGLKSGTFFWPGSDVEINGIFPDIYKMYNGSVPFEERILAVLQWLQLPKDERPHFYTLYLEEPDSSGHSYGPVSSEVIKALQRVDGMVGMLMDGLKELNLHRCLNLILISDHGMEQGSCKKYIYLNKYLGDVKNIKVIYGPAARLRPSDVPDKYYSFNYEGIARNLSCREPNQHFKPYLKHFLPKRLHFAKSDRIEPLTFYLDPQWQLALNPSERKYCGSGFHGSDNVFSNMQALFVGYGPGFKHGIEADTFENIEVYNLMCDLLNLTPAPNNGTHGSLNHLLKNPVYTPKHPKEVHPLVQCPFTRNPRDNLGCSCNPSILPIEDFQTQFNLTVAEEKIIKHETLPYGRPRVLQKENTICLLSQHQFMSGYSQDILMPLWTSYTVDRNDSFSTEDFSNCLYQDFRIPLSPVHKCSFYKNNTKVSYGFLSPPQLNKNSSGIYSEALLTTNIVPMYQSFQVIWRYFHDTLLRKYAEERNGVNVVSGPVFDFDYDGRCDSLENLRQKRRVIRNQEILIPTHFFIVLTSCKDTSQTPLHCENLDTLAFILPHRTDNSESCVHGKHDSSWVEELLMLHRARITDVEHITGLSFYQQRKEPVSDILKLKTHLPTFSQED


Assays:
ENPP1 = biological target: T1, ENPP1; assay: ENPP1 ATP degradation and its inhibition by chelators/inhibitor, Kinase-Glo; assay type: biochemical
Protocol: ENPP1 converts ATP to AMP and pyrophosphate, is zinc-dependent, and is inactivated by EGTA, by the zinc chelator N,N,N′,N′-Tetrakis (2 pyridylmethyl) ethylenediamine (TPEN), and by certain small molecule inhibitors.
ENPP1 (100 ng/reaction) was incubated with 10 μM ATP and varying amounts of chelators (EGTA, TPEN) or an ENPP1 selective inhibitor called inhibitor C in a reaction buffer containing 50 mM Tris HCl, pH 7.5, 250 mM NaCl, 5 uM ZnCl2, 0.1 mg/ml BSA. The reactions were allowed to proceed for 60 minutes.

Pp-apyrase [1] = biological target: T2, Pp-apyrase (Phlebotomus papatasi, UniProt Q9GTP7); assay: Inactivation of Pp-apyrase by EGTA in cell lysis/ATP detection reagent, tube format; assay type: biochemical; conditions: 10 mM EGTA in cell lysis/ATP detection reagent
T2 construct: GST (glutathione S transferase); made in house; host or cells: E. coli
T2 sequence (Q9GTP7 22-336 limits assumed): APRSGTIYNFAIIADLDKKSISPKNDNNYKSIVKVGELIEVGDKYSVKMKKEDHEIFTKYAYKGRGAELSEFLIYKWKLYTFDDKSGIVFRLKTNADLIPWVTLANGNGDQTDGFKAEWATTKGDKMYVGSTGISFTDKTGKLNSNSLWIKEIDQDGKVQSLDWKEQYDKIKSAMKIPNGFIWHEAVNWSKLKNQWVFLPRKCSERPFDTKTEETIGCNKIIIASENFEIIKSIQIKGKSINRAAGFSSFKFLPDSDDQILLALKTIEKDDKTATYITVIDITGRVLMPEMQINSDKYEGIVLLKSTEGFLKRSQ
Protocol: Luminescent signals were measured over time starting immediately after addition of the lysis/ATP detection reagent. Reactions were performed in microcentrifuge-style tubes and analyzed for luminescence on a single tube reading luminometer (GloMax® 20/20, Promega Corp.).
Reactions were performed in microcentrifuge-style tubes and analyzed for luminescence on a single tube reading luminometer (GloMax® 20/20, Promega Corp.).

Cl-apyrase (Ca-apyrase) = biological target: T3, Cl-apyrase (Ca-apyrase) (Cimex lectularius, UniProt O96559); assay: Inhibition of Cl-apyrase by EGTA, luminescence over time; assay type: biochemical; conditions: EGTA present; decline of luminescence over time
T3 construct: His tag; made in house; host or cells: E. coli
T3 sequence (O96559 36-364 limits assumed): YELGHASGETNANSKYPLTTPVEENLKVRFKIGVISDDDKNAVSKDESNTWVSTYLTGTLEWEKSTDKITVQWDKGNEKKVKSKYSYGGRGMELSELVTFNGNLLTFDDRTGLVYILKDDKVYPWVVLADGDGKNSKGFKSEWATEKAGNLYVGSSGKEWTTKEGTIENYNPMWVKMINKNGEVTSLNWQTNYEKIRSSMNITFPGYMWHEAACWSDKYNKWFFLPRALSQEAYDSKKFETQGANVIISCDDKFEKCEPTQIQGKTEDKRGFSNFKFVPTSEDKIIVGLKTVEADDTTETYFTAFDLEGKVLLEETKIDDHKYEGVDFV
Excerpt: (§1) The Ca^2+/Mg^2+ apyrase from potato, Solanum tuberosum (St-apyrase), is the most commonly used apyrase for ATP elimination. However, its inactivation requires measures, such as high temperature or extreme pH treatment, which are incompatible with the simple cartridge design disclosed here. The need for an extended heating time for apyrase inactivation is also incompatible with the goal of rapid sample collection and analysis. […] Cl- and St-apyrase were compared for their capacity to remove extracellular ATP and to be inhibited by the Ca^2+-selective chelator EGTA. Mg^2+ is critical for luciferase activity so the Mg^2+-selective chelator EDTA was not tested. In the absence of EGTA, both enzymes eliminated ATP as indicated by a time-dependent decrease in luminescence (FIG. 3).

[2] = tested on: St-apyrase (Ca2+/Mg2+ apyrase from potato); assay: Inhibition of St-apyrase by EGTA, luminescence over time; assay type: biochemical, Solanum tuberosum; conditions: same amount of EGTA; luminescence declined over time
Excerpt: as §1

Pp-apyrase [3] = biological target: T2, Pp-apyrase; assay: Inhibition of Pp-apyrase by EGTA in cartridge format; assay type: biochemical; conditions: EGTA in lysis/ATP detection reagent, after an initial ATP elimination step
Protocol: Apyrase from the sandfly Phlebotomus papatasi (Pp-apyrase) was also characterized for use in an exemplary cartridge format. […] Empty plastic cartridges were obtained from Empire Bio Diagnostics. […] 20 second exposures of ATP in swab tips were followed by immersion of the swab tips in the cartridge receptacle in the ATP detection/cell lysis formulation with 10 mM EGTA described for FIG. 6, and then insertion of the cartridge receptacle in a handheld luminometer (luminometer prototype by Empire Bio Diagnostics). […] A portion of the values shown above the vertical axis represent luminescent values too low to be visible as bars on the graph.

Row | Molecule | inactivation of ENPP1 (in words) (ENPP1) | inactivation of Pp-apyrase (in words) (Pp-apyrase [1]) | Cl-apyrase activity in the presence of EGTA (in words) (Cl-apyrase (Ca-apyrase)) | St-apyrase inhibition in the presence of EGTA (in words) [2] | inhibition of Pp-apyrase in cartridge format (in words) (Pp-apyrase [3]) | conditionally active ATP eliminating properties (in words) (ENPP1; ENPP1 100 ng/reaction, 10 μM ATP, 60 minutes, 5 uM ZnCl2)
1 | c1ccc(CN(CCN(Cc2ccccn2)Cc2ccccn2)Cc2ccccn2)nc1 [TPEN, N,N,N′,N′-Tetrakis (2 pyridylmethyl) ethylenediamine] | inactivated |  |  |  |  | 
2 | O=C(O)CN(CCOCCOCCN(CC(=O)O)CC(=O)O)CC(=O)O [EGTA] | inactivated | effectively inactivated; also recorded: substantially inactivated | no Cl-apyrase activity was detected; also recorded: substantially inactivated | only partially inhibited | effective | 
3 | ENPP1: zinc-dependent enzyme that converts ATP to AMP and pyrophosphate (protein, UniProt P22413 1-925, looked up) Ectonucleotide …: MERDGCAGGGSRGGEGGRAPREGPAGNGRDRGRSHAAEAPGDPQAAASLLAPMDVGEEPLEKAARARTAKDPNTYKVLSLVLSVCVLTTILGCIFGLKPSCAKEVKSCKGRCFERTFGNCRCDAACVELGNCCLDYQETCIEPEHIWTCNKFRCGEKRLTRSLCACSDDCKDKGDCCINYSSVCQGEKSWVEEPCESINEPQCPAGFETPPTLLFSLDGFRAEYLHTWGGLLPVISKLKKCGTYTKNMRPVYPTKTFPNHYSIVTGLYPESHGIIDNKMYDPKMNASFSLKSKEKFNPEWYKGEPIWVTAKYQGLKSGTFFWPGSDVEINGIFPDIYKMYNGSVPFEERILAVLQWLQLPKDERPHFYTLYLEEPDSSGHSYGPVSSEVIKALQRVDGMVGMLMDGLKELNLHRCLNLILISDHGMEQGSCKKYIYLNKYLGDVKNIKVIYGPAARLRPSDVPDKYYSFNYEGIARNLSCREPNQHFKPYLKHFLPKRLHFAKSDRIEPLTFYLDPQWQLALNPSERKYCGSGFHGSDNVFSNMQALFVGYGPGFKHGIEADTFENIEVYNLMCDLLNLTPAPNNGTHGSLNHLLKNPVYTPKHPKEVHPLVQCPFTRNPRDNLGCSCNPSILPIEDFQTQFNLTVAEEKIIKHETLPYGRPRVLQKENTICLLSQHQFMSGYSQDILMPLWTSYTVDRNDSFSTEDFSNCLYQDFRIPLSPVHKCSFYKNNTKVSYGFLSPPQLNKNSSGIYSEALLTTNIVPMYQSFQVIWRYFHDTLLRKYAEERNGVNVVSGPVFDFDYDGRCDSLENLRQKRRVIRNQEILIPTHFFIVLTSCKDTSQTPLHCENLDTLAFILPHRTDNSESCVHGKHDSSWVEELLMLHRARITDVEHITGLSFYQQRKEPVSDILKLKTHLPTFSQED |  |  |  |  |  | qualitatively demonstrated the conditionally active ATP eliminating properties
